#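 1) Cells in 96-well plates. 2) Compound, 48 h, 5 concentrations. 3) Linear interpolation between surrounding doses. 4) Unreached endpoint = highest concentration. At the GI50, growth is halved.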 The source made the active and inactive calls. No stated cut-off is given here; in the data, active = GI50 up to about 1.1 µM and inactive = higher.
# Legend:
# Experiment in all cases: inhibition of tumour cell growth, NCI panel, 48 h
# [1] = test system: IGROV-1
# [2] = test system: DU-145
# [3] = test system: SF-295
# [4] = test system: SNB-75
# [5] = test system: CAKI-1
# [6] = test system: MDA-N
# [7] = test system: MCF7
# [8] = test system: HCC 2998
# [9] = test system: ACHN
# [10] = test system: TK-10
# [11] = test system: Malme-3M
# [12] = test system: UO-31
# [13] = test system: HCT-116
# [14] = test system: SF-268
# [15] = test system: OVCAR-4
# [16] = test system: U-251
# [17] = test system: SW-620
# [18] = test system: SK-MEL-28
# [19] = test system: NCI-H460
# [20] = test system: SNB-19
Compound,GI50 [1],GI50 [2],GI50 [3],GI50 [4],GI50 [5],GI50 [6],GI50 [7],GI50 [8],GI50 [9],GI50 [10],GI50 [11],GI50 [12],GI50 [13],GI50 [14],GI50 [15],GI50 [16],GI50 [17],GI50 [18],GI50 [19],GI50 [20]
Clc1nncc2sc(-c3ccccc3)nc12,8.67 µM (inactive),6.62 µM (inactive),27.1 µM (inactive),15.9 µM (inactive),0.2 µM (active),21.6 µM (inactive),25.5 µM (inactive),8.45 µM (inactive),26.9 µM (inactive),40.9 µM (inactive),22.1 µM (inactive),19.9 µM (inactive),16.9 µM (inactive),16.3 µM (inactive),18.4 µM (inactive),15 µM (inactive),21 µM (inactive),12.8 µM (inactive),16.8 µM (inactive),17.9 µM (inactive)
Oc1ccc2ccccc2c1-c1nnc(CCCCCCCCc2nnc(-c3c(O)ccc4ccccc34)o2)o1,0.536 µM (active),5.08 µM (inactive),3.61 µM (inactive),21.4 µM (inactive),0.813 µM (active),4.23 µM (inactive),8.95 µM (inactive),4.06 µM (inactive),0.741 µM (active),9.42 µM (inactive),3.1 µM (inactive),0.389 µM (active),1.18 µM (inactive),0.834 µM (active),1.15 µM (inactive),1.05 µM (active),3.44 µM (inactive),18.1 µM (inactive),0.955 µM (active),3.53 µM (inactive)
O=NN(Cc1ccc(Cl)cc1)C(C(=O)O)c1ccccc1 (stereo not given),> 100 µM (inactive),> 100 µM (inactive),> 100 µM (inactive),> 100 µM (inactive),> 100 µM (inactive),> 100 µM (inactive),> 100 µM (inactive),43.9 µM (inactive),> 100 µM (inactive),> 100 µM (inactive),> 100 µM (inactive),> 100 µM (inactive),> 100 µM (inactive),> 100 µM (inactive),> 100 µM (inactive),> 100 µM (inactive),> 100 µM (inactive),> 100 µM (inactive),> 100 µM (inactive),> 100 µM (inactive)
O=C(O)/C=C/c1ccc(OS(=O)(=O)O)cc1,> 100 µM (inactive),> 100 µM (inactive),> 100 µM (inactive),> 100 µM (inactive),> 100 µM (inactive),> 100 µM (inactive),> 100 µM (inactive),> 100 µM (inactive),> 100 µM (inactive),> 100 µM (inactive),> 100 µM (inactive),> 100 µM (inactive),> 100 µM (inactive),> 100 µM (inactive),> 100 µM (inactive),> 100 µM (inactive),> 100 µM (inactive),> 100 µM (inactive),> 100 µM (inactive),> 100 µM (inactive)
O=[N+]([O-])O [NITRIC ACID],> 100 µM (inactive),> 100 µM (inactive),> 100 µM (inactive),> 100 µM (inactive),> 100 µM (inactive),> 100 µM (inactive),> 100 µM (inactive),> 100 µM (inactive),> 100 µM (inactive),> 100 µM (inactive),> 100 µM (inactive),> 100 µM (inactive),> 100 µM (inactive),> 100 µM (inactive),> 100 µM (inactive),> 100 µM (inactive),> 100 µM (inactive),> 100 µM (inactive),> 100 µM (inactive),> 100 µM (inactive)
CC(=O)[C@]1(O)Cc2c(O)c3c(c(O)c2C(OC2OC(C)C(O)C(O)C2F)C1)C(=O)c1ccccc1C3=O (stereo not given in full),0.0419 µM (active),0.0502 µM (active),< 0.014 µM (active),0.0664 µM (active),0.013 µM (active),0.475 µM (active),< 0.01 µM (active),0.208 µM (active),0.0107 µM (active),0.197 µM (active),0.208 µM (active),< 0.01 µM (active),0.0565 µM (active),0.084 µM (active),0.914 µM (active),< 0.0159 µM (active),0.0796 µM (active),0.547 µM (active),< 0.01 µM (active),< 0.0199 µM (active)
NS(=O)(=O)c1ccc(/N=N/c2c(O)c(C(=O)O)cc3ccccc23)cc1,> 100 µM (inactive),> 100 µM (inactive),> 100 µM (inactive),> 100 µM (inactive),> 100 µM (inactive),59.2 µM (inactive),> 90.2 µM (inactive),> 100 µM (inactive),> 100 µM (inactive),> 100 µM (inactive),26.1 µM (inactive),> 100 µM (inactive),> 100 µM (inactive),> 100 µM (inactive),> 100 µM (inactive),49.3 µM (inactive),> 92.3 µM (inactive),> 93.5 µM (inactive),> 100 µM (inactive),43.1 µM (inactive)
COc1cccc(/C=N/n2c(Cc3ccc(Cl)cc3)n[nH]c2=O)c1,33.5 µM (inactive),25.8 µM (inactive),17.1 µM (inactive),11.7 µM (inactive),23.4 µM (inactive),> 100 µM (inactive),29.9 µM (inactive),> 100 µM (inactive),36.6 µM (inactive),74 µM (inactive),44.6 µM (inactive),> 73.5 µM (inactive),47.8 µM (inactive),15.9 µM (inactive),> 92.9 µM (inactive),22.8 µM (inactive),> 100 µM (inactive),> 100 µM (inactive),> 91.4 µM (inactive),27.3 µM (inactive)
CC(=O)c1cc2c(s1)C(=O)c1scc(C(C)=O)c1C2=O,0.514 µM (active),1.52 µM (inactive),0.883 µM (active),0.598 µM (active),0.929 µM (active),0.198 µM (active),0.163 µM (active),1.98 µM (inactive),0.248 µM (active),3.52 µM (inactive),0.385 µM (active),0.455 µM (active),0.293 µM (active),0.319 µM (active),0.197 µM (active),0.228 µM (active),0.394 µM (active),0.673 µM (active),0.345 µM (active),1.15 µM (inactive)
C[n+]1cccc(/C=C/c2ccc3cccc(O)c3n2)c1,> 100 µM (inactive),> 100 µM (inactive),> 100 µM (inactive),> 100 µM (inactive),> 100 µM (inactive),> 100 µM (inactive),72.4 µM (inactive),> 100 µM (inactive),> 100 µM (inactive),> 100 µM (inactive),19.3 µM (inactive),> 100 µM (inactive),> 100 µM (inactive),26.9 µM (inactive),> 100 µM (inactive),49.2 µM (inactive),> 100 µM (inactive),> 100 µM (inactive),68.7 µM (inactive),42 µM (inactive)
CCOC(=O)C(Cc1ccc2c(c1)CCC2)(Cc1ccc2c(c1)CCC2)C(=O)OCC,> 100 µM (inactive),> 100 µM (inactive),80.7 µM (inactive),> 100 µM (inactive),> 100 µM (inactive),46 µM (inactive),52.6 µM (inactive),49 µM (inactive),> 100 µM (inactive),> 100 µM (inactive),21.1 µM (inactive),71.9 µM (inactive),31.7 µM (inactive),56.9 µM (inactive),> 100 µM (inactive),> 100 µM (inactive),> 100 µM (inactive),51.5 µM (inactive),51.3 µM (inactive),> 100 µM (inactive)
NC(=O)N/N=C(\Cc1nc2ccc(Cl)cc2nc1O)C(=O)Nc1ccc(Cl)cc1Cl,81.5 µM (inactive),> 100 µM (inactive),> 100 µM (inactive),> 100 µM (inactive),> 100 µM (inactive),> 100 µM (inactive),> 100 µM (inactive),> 100 µM (inactive),> 100 µM (inactive),> 100 µM (inactive),> 100 µM (inactive),> 100 µM (inactive),> 100 µM (inactive),> 100 µM (inactive),> 100 µM (inactive),> 100 µM (inactive),> 100 µM (inactive),> 100 µM (inactive),> 100 µM (inactive),> 100 µM (inactive)
CC(C)NCC(O)c1cc(OCc2ccccc2)c(OCc2ccccc2)cc1NC(=O)CCC(=O)O (stereo not given),11.4 µM (inactive),13 µM (inactive),3.94 µM (inactive),10.6 µM (inactive),8.75 µM (inactive),2.21 µM (inactive),5.69 µM (inactive),2.49 µM (inactive),3.18 µM (inactive),7.53 µM (inactive),15.2 µM (inactive),5.77 µM (inactive),5.22 µM (inactive),10.1 µM (inactive),11.5 µM (inactive),5.04 µM (inactive),2.61 µM (inactive),4.08 µM (inactive),1.85 µM (inactive),12.6 µM (inactive)
CC(C)(C)C1CCC(=O)/C(=C/CC2CC(=O)N(c3ccccc3)C(=O)C2)C1 (stereo not given),19.7 µM (inactive),19.2 µM (inactive),47.8 µM (inactive),21.9 µM (inactive),20.9 µM (inactive),22.6 µM (inactive),19.3 µM (inactive),23.8 µM (inactive),19.9 µM (inactive),17.5 µM (inactive),18.6 µM (inactive),16.6 µM (inactive),14.8 µM (inactive),20.1 µM (inactive),32.7 µM (inactive),14.9 µM (inactive),23.4 µM (inactive),21.2 µM (inactive),16.6 µM (inactive),22 µM (inactive)

# — ChEMBL document CHEMBL1201862, “PubChem BioAssay data set” (2004)
